Experimental data published in publication PMC12396409, “Screening and hit evaluation of a microbial metabolite library against the pathogenic Plasmodium falciparum and Toxoplasma gondii parasites” (International Journal for Parasitology: Drugs and Drug …, 2025).
Read-outs that look alike come from different tables or passages of the source.

How the values were obtained:
[1] = test system: P. falciparum 3D7 parasites; assay: P. falciparum growth inhibition assay, 1-cycle (72 h treatment), SYBR DNA staining (library screen at 2 μg/mL and dose-response); type: cell-based, Plasmodium falciparum; conditions: for activity at 2 µg/mL: Plasmodium falciparum; for Screen (P. falciparum): DD from the 120 h timepoint
[2] = test system: T. gondii RH strain (RH-Tub-eYFP) tachyzoites; assay: microbe, parasite or virus in culture; type: cell-based, Toxoplasma gondii; conditions: for percent parasite growth at 2 µg/mL: Toxoplasma gondii
[3] = test system: P. falciparum 3D7 parasites; assay: P. falciparum growth inhibition assay, 2-cycle (120 h treatment), delayed-death screen and dose-response; type: cell-based, Plasmodium falciparum; conditions: for activity at 2 µg/mL: Plasmodium falciparum
[4] = P. falciparum, 72 h, screen at 2 μg/mL, replicate 1
[5] = P. falciparum, 72 h, screen at 2 μg/mL, replicate 2
[6] = T. gondii, 72 h, screen at 2 μg/mL, replicate 1
[7] = T. gondii, 72 h, screen at 2 μg/mL, replicate 2
[8] = P. falciparum, 120 h, screen at 2 μg/mL, replicate 1
[9] = P. falciparum, 120 h, screen at 2 μg/mL, replicate 2
[10] = active against the parasite at 2 μg/mL, no anti-tumour (NS-1) or cytotoxic (fibroblast) activity at 5 μg/mL
[11] = library screen at 2 μg/mL, 72 h, % growth, replicate 1
[12] = library screen at 2 μg/mL, 72 h, % growth, replicate 2
[13] = library screen at 2 μg/mL, 120 h, % growth, replicate 1
[14] = library screen at 2 μg/mL, 120 h, % growth, replicate 2
[15] = 2 μg/mL, 72 h, active = ≥80 % growth inhibition
[16] = library screen at 2 μg/mL, 3D7, 72 h
[17] = library screen at 2 μg/mL, RH strain, 72 h

CN1C(=O)c2ccccc2NC(=O)[C@@H]1Cc1ccccc1 [Cyclopeptine]
Pf_72h_%Growth_Rep1 [1, 4]: 53.40% | Pf_72h_%Growth_Rep2 [1, 5]: 63.93% | Tg_72h_%Growth_Rep1 [2, 6]: 139.33% | Tg_72h_%Growth_Rep2 [2, 7]: 93.22% | Pf_120h_%Growth_Rep1 [3, 8]: 15.88% | Pf_120h_%Growth_Rep2 [3, 9]: 61.17%

C=C1[C@@H](C)[C@H]2[C@H](Cc3ccccc3)NC(=O)[C@]23[C@H](O)/C=C/[C@](C)(O)C[C@@H](C)C/C=C/[C@H]3[C@@H]1O [cytochalasin J]
Pf_72h_%Growth_Rep1 [1, 4]: 6.03% | Pf_72h_%Growth_Rep2 [1, 5]: 6.00% | selectivity for P. falciparum in the screens [1, 10]: active selectively against P. falciparum and T. gondii | Tg_72h_%Growth_Rep1 [2, 6]: 4.83% | Tg_72h_%Growth_Rep2 [2, 7]: 6.80% | selectivity for T. gondii in the screens [2, 10]: active selectively against P. falciparum and T. gondii | Pf_120h_%Growth_Rep1 [3, 8]: 0.52% | Pf_120h_%Growth_Rep2 [3, 9]: -0.13%

COc1cc(-c2cc3c(c(=O)o2)C[C@]2(O)[C@@]4(C)C(=O)C=CC(C)(C)[C@]4(O)CC[C@@]2(C)O3)cc(OC)c1OC [Territrem B]
activity at 2 µg/mL ([1]; 3D7, 72 h, P. falciparum, 72 h, screen at 2 μg/mL, replicate 1, read-out: Pf_72h_%Growth_Rep1): 63.6% | activity at 2 µg/mL ([1]; 3D7, 72 h, P. falciparum, 72 h, screen at 2 μg/mL, replicate 2, read-out: Pf_72h_%Growth_Rep2): 64.7% | percent parasite growth at 2 µg/mL ([2]; 72 h, T. gondii, 72 h, screen at 2 μg/mL, replicate 1, read-out: Tg_72h_%Growth_Rep1): 89.7% | percent parasite growth at 2 µg/mL ([2]; 72 h, T. gondii, 72 h, screen at 2 μg/mL, replicate 2, read-out: Tg_72h_%Growth_Rep2): 98.2% | activity at 2 µg/mL ([3]; 3D7, 120 h, P. falciparum, 120 h, screen at 2 μg/mL, replicate 1, read-out: Pf_120h_%Growth_Rep1): 148% | activity at 2 µg/mL ([3]; 3D7, 120 h, P. falciparum, 120 h, screen at 2 μg/mL, replicate 2, read-out: Pf_120h_%Growth_Rep2): 68.3%

COC1=C(OC)C(=O)C(C)=C(C)C1=O [Aurantiogliocladin]
Pf_72h_%Growth_Rep1 [1, 11]: 5.55% | Pf_72h_%Growth_Rep2 [1, 12]: 9.01% | Tg_72h_%Growth_Rep1 [2, 11]: 92.07% | Tg_72h_%Growth_Rep2 [2, 12]: 99.65% | Pf_120h_%Growth_Rep1 [3, 13]: 10.46% | Pf_120h_%Growth_Rep2 [3, 14]: -13.06%

C=C1c2c(Cl)ccc(O)c2C(=O)C2=C(O)[C@]3(O)C(=O)C(C(N)=O)=C(O)[C@@H](N(C)C)[C@@H]3[C@@H](O)[C@H]12 [BIA-M1464]
Pf_72h_%Growth_Rep1 ([1]; P. falciparum 3D7, 72 h, library screen at 2 μg/mL, % growth, replicate 1): 76.80% | Pf_72h_%Growth_Rep2 ([1]; P. falciparum 3D7, 72 h, library screen at 2 μg/mL, % growth, replicate 2): 116.17% | Tg_72h_%Growth_Rep1 ([2]; T. gondii RH, 72 h, library screen at 2 μg/mL, % growth, replicate 1): 124.80% | Tg_72h_%Growth_Rep2 ([2]; T. gondii RH, 72 h, library screen at 2 μg/mL, % growth, replicate 2): 96.61% | Pf_120h_%Growth_Rep1 ([3]; P. falciparum 3D7, 120 h, library screen at 2 μg/mL, % growth, replicate 1): 99.01% | Pf_120h_%Growth_Rep2 ([3]; P. falciparum 3D7, 120 h, library screen at 2 μg/mL, % growth, replicate 2): 114.33%

COc1ccc2c3c(c4cc(OC)c(OC)cc4c2c1)C[C@H]1CCCCN1C3 [Cryptopleurine]
activity in the screen against P. falciparum [1, 15]: activity against both parasites | IC50 ([1]; 3D7, 72 h treatment, mean ± S.D., n ≥ 3, read-out: IC50 (μM), P. falciparum): 0.008 ± 0.003 µM | Pf_72h_%Growth_Rep1 [1, 4]: 8.09% | Pf_72h_%Growth_Rep2 [1, 5]: -1.65% | Screen (P. falciparum) [1, 16]: A, A | activity in the screen against T. gondii [2, 15]: activity against both parasites | IC50 ([2]; RH strain, 72 h, mean ± S.D., n ≥ 3, read-out: IC50 (μM), T. gondii (converted)): 0.011 µM | Tg_72h_%Growth_Rep1 [2, 6]: 6.11% | Tg_72h_%Growth_Rep2 [2, 7]: 2.53% | Screen (T. gondii) [2, 17]: A, A | Pf_120h_%Growth_Rep1 [3, 8]: 9.09% | Pf_120h_%Growth_Rep2 [3, 9]: 3.06%

CC[C@]1(C)C[C@@H](OC(=O)CO)C2(C)[C@H](C)CCC3(CCC(=O)[C@H]32)[C@@H](C)[C@@H]1O (stereo partly shown) [Dihydropleuromutilin]
Screen (P. falciparum) [1, 16]: I, I | Pf_72h_%Growth_Rep1 [1, 11]: 84.27% | Pf_72h_%Growth_Rep2 [1, 12]: 76.59% | Tg_72h_%Growth_Rep1 [2, 11]: 80.68% | Tg_72h_%Growth_Rep2 [2, 12]: 63.68% | Screen (T. gondii) [2, 17]: I, I | Pf_120h_%Growth_Rep1 [3, 13]: 42.82% | Pf_120h_%Growth_Rep2 [3, 14]: 51.71%

CC[C@H](C)[C@@H](OC(C)=O)[C@@H](C)C1=CC(=O)C2=C(O[C@]3(C)CC[C@H]4O[C@@H](C(C)(C)O)CC[C@]4(C)[C@H]3[C@@H]2O)C1=O [Cochlioquinone A]
activity at 2 µg/mL ([1]; 3D7, P. falciparum, 72 h, screen at 2 μg/mL, replicate 1, read-out: Pf_72h_%Growth_Rep1): 79.2% | activity at 2 µg/mL ([1]; 3D7, P. falciparum, 72 h, screen at 2 μg/mL, replicate 2, read-out: Pf_72h_%Growth_Rep2): 80.1% | percent parasite growth at 2 µg/mL ([2]; T. gondii, 72 h, screen at 2 μg/mL, replicate 1, read-out: Tg_72h_%Growth_Rep1): 161% | percent parasite growth at 2 µg/mL ([2]; T. gondii, 72 h, screen at 2 μg/mL, replicate 2, read-out: Tg_72h_%Growth_Rep2): 90.2% | activity at 2 µg/mL ([3]; 3D7, P. falciparum, 120 h, screen at 2 μg/mL, replicate 1, read-out: Pf_120h_%Growth_Rep1): 75.8% | activity at 2 µg/mL ([3]; 3D7, P. falciparum, 120 h, screen at 2 μg/mL, replicate 2, read-out: Pf_120h_%Growth_Rep2): 74.1%
